US10940139B2, “Compounds that interact with the Ras superfamily for the treatment of cancers, inflammatory diseases, rasopathies, and fibrotic disease” (Shy Therapeutics LLC, priority 2017, dated 2021)

tested on: MAPK phosphorylation in PANC-1 pancreatic cancer cell line; experiment: MAPK cell-based phosphorylation assay (cell-direct ELISA, EGF stimulation); conditions: Homo sapiens
Protocol: Cell lines: Tumor-derived pancreatic cancer cell lines PANC-1 were purchased from ATCC and were maintained according to ATCC recommendation.
Method: Cells were plated at 7500 cells/well density in 96-wells plate, starved over night, and the small molecules to be tested were added to the cells in the final concentration of 30 μM with 0.3% DMSO for 6 hours incubation at 37° C. For IC50 value determination, serial dilutions of compounds were added to cells under the same conditions. Next, cells were stimulated with 1.5 ng/ml EGF for 15 min. followed by cell fixation with 4% Formaldehyde in PBS at RT for 20 min. Phosphorylation level of MAPK was determined by Cell-direct ELISA.
Cell-direct ELISA: For each well, cells were permeabilized with PBS-Triton 0.1%, quenched with H2O2 0.6% in PBS-Triton 0.1%, and probed with anti-phospho-MAPK antibodies (R&D Systems) followed by HRP-conjugated secondary antibody (Jackson Immunoresearch, West Grove, Pa.). Next, a solution 50 μM of the fluorescent substrate AmpliFlu Red (Sigma) was added and incubated at RT for 20 min. At the end of the incubation time, fluorescence was measured at 595 nm on a microplate reader (AF2200; Eppendorf, Inc., Hamburg, Germany).

Row | SMILES | IC50 [µM]
1 | COCC(C)Nc1nc(-c2ccccn2)nc2sc(C)c(-c3ccccc3)c12 (stereo not shown) [drawing 1040] | 11 to 30
2 | CCc1cc(NNC(=O)c2ccc(C#N)cc2)nc(-c2ccccn2)n1 [drawing 1041] | 2 to 10
3 | Oc1nc(-c2ccccn2)nc2c(Br)csc12 [drawing 1064] | 2 to 10
4 | O=C(c1csc2c(O)nc(-c3ccccn3)nc12)N1CCN(c2ccccc2)CC1 [drawing 1068] | 2 to 10

same assay, conditions: Homo sapiens, at 30 μM

Row | SMILES | inhibition at 30 µM [%]
5 | COC(=O)c1cc(NCC2NC(CC(C)C)=NO2)ccc1Cl (stereo not shown) | 1 to 25
6 | O=[N+]([O-])c1cc(C(F)(F)F)ccc1Sc1nc2c(c(C(F)(F)F)n1)CCCC2 | 1 to 25
7 | CCOC(=O)c1ccnc(N2CCC(C)CC2c2ccc(CC)o2)c1[N+](=O)[O-] (stereo not shown) | 25 to 50
8 | N#Cc1ccc(CC(=O)Cc2ccnc(-c3ccccn3)n2)cc1 | 1 to 25
9 | O=C(CCc1cnn(-c2ccccc2)c1)Nc1nnc(-c2ccccn2)[nH]1 [drawing 992] | 25 to 50
10 | CC(C)NC(=O)Nc1cccc(C(=O)Nc2nnc(-c3ccccn3)[nH]2)c1 [drawing 993] | 1 to 25
11 | COc1ccc(CCC(=O)Nc2nnc(-c3ccccn3)[nH]2)cc1F [drawing 994] | 51 to 75
12 | O=C(Nc1nnc(-c2ccccn2)[nH]1)c1ccc2c(c1)CCO2 [drawing 995] | 1 to 25
13 | O=C(Cc1c[nH]c2ccccc12)Nc1nnc(-c2ccccn2)[nH]1 [drawing 996] | 51 to 75
14 | O=C(Nc1nnc(-c2ccccn2)[nH]1)C1CCn2c(cnc2-c2ccccc2)C1 (stereo not shown) [drawing 997] | 1 to 25
15 | O=C(Nc1nnc(-c2ccccn2)[nH]1)c1ccn(-c2ccccc2)n1 [drawing 998] | 1 to 25
16 | O=C(Nc1nnc(-c2ccccn2)[nH]1)c1ccn(-c2cccc(F)c2)n1 [drawing 999] | 1 to 25
17 | COc1ccc2c(ccn2CC(=O)Nc2nnc(-c3ccccn3)[nH]2)c1 [drawing 1000] | 1 to 25
18 | O=C(CCc1c[nH]c2ccccc12)Nc1nnc(-c2ccccn2)[nH]1 [drawing 1001] | 25 to 50
19 | O=C(Nc1nnc(-c2ccccn2)[nH]1)c1ccc2ccccc2n1 [drawing 1002] | 1 to 25
20 | CC(C)c1nc(CC(=O)Nc2nnc(-c3ccccn3)[nH]2)cs1 [drawing 1003] | 1 to 25
21 | O=C(Nc1nnc(-c2ccccn2)[nH]1)c1ccc(CN2C(=O)CCC2=O)cc1 [drawing 1004] | 1 to 25
22 | O=C(CC1C=CCC1)Nc1nnc(-c2ccccn2)[nH]1 (stereo not shown) [drawing 1005] | 1 to 25
23 | COc1ccc(CC(=O)Nc2nnc(-c3ccccn3)[nH]2)cc1 [drawing 1006] | 1 to 25
24 | O=C(Cc1cccs1)Nc1nnc(-c2ccccn2)[nH]1 [drawing 1007] | 25 to 50
25 | O=C(Nc1nnc(-c2ccccn2)[nH]1)C1CCCC1 [drawing 1008] | 1 to 25
26 | O=C(Nc1nnc(-c2ccccn2)[nH]1)c1ncoc1-c1cccs1 [drawing 1009] | 25 to 50
27 | O=C(Cn1c(=O)oc2ccccc21)Nc1nnc(-c2ccccn2)[nH]1 [drawing 1010] | 1 to 25
28 | O=C(CCNC(=O)c1ccco1)Nc1nnc(-c2ccccn2)[nH]1 [drawing 1011] | 1 to 25
29 | Cc1ccc(CC(=O)Nc2nnc(-c3ccccn3)[nH]2)cn1 [drawing 1012] | 1 to 25
30 | CC(Oc1ccccc1C#N)C(=O)Nc1nnc(-c2ccccn2)[nH]1 (stereo not shown) [drawing 1013] | 51 to 75

Row | SMILES | inhibition at 30 µM [%]
31 | CC(Oc1ccc(C(=O)Nc2nnc(-c3ccccn3)[nH]2)cn1)c1ccccc1 (stereo not shown) [drawing 1014] | 25 to 50
32 | O=C(Nc1nnc(-c2ccccn2)[nH]1)C1CCCN(c2ncccn2)C1 (stereo not shown) [drawing 1015] | 1 to 25
33 | CC(OCc1ccccc1)C(=O)Nc1nnc(-c2ccccn2)[nH]1 (stereo not shown) [drawing 1016] | 1 to 25
34 | O=C(Nc1nnc(-c2ccccn2)[nH]1)C1CCCC(C(F)(F)F)C1 (stereo not shown) [drawing 1017] | 51 to 75
35 | Cc1ccc(CC(=O)Nc2nnc(-c3ccccn3)[nH]2)s1 [drawing 1018] | 1 to 25
36 | O=C(Nc1nnc(-c2ccccn2)[nH]1)C1CCCN(c2cnccn2)C1 (stereo not shown) [drawing 1019] | 1 to 25
37 | Cc1nc2nc(C(F)(F)F)nn2c(C)c1CC(=O)Nc1nnc(-c2ccccn2)[nH]1 [drawing 1020] | 1 to 25
38 | O=C(Nc1nnc(-c2ccccn2)[nH]1)c1cccc(N2CCCS2(=O)=O)c1 [drawing 1021] | 1 to 25
39 | CC(C)C(=O)Nc1nc(CC(=O)Nc2nnc(-c3ccccn3)[nH]2)cs1 [drawing 1022] | 1 to 25
40 | CC(C)(C)c1nc(C(=O)Nc2nnc(-c3ccccn3)[nH]2)cs1 [drawing 1023] | 1 to 25
41 | O=C(Nc1nnc(-c2ccccn2)[nH]1)C1CC(=O)N(Cc2cccc(C(F)(F)F)c2)C1 (stereo not shown) [drawing 1024] | 25 to 50
42 | O=C(Nc1nnc(-c2ccccn2)[nH]1)C1Cc2cc(Cl)ccc2O1 (stereo not shown) [drawing 1025] | 1 to 25
43 | O=C(Cc1ccc2c(c1)OCCO2)Nc1nnc(-c2ccccn2)[nH]1 [drawing 1026] | 1 to 25
44 | O=C(Nc1nnc(-c2ccccn2)[nH]1)C1CCN(C(=O)c2cccs2)CC1 [drawing 1027] | 1 to 25
45 | O=C(Nc1nnc(-c2ccccn2)[nH]1)c1ccn(-c2cccc(Cl)c2)n1 [drawing 1028] | 25 to 50
46 | CS(=O)(=O)Cc1ccc(C(=O)Nc2nc(-c3ccccn3)cs2)cc1 [drawing 1029] | 1 to 25
47 | O=C(Cn1cnc2ccccc2c1=O)Nc1nc(-c2ccccn2)cs1 [drawing 1030] | 1 to 25
48 | O=C(Nc1nc(-c2ccccn2)cs1)C1CC(=O)N(c2ccc3c(c2)OCCO3)C1 (stereo not shown) [drawing 1031] | 25 to 50
49 | O=C(Nc1nc(-c2ccccn2)cs1)c1cccnc1 [drawing 1032] | 1 to 25
50 | O=C(Cc1cccc(F)c1)Nc1nc(-c2ccccn2)cs1 [drawing 1033] | 1 to 25
51 | O=C(Nc1nc(-c2ccccn2)cs1)c1ccncc1 [drawing 1034] | 25 to 50
52 | O=C(Nc1nc(-c2ccccn2)cs1)c1ccc(F)cc1 [drawing 1035] | 1 to 25
53 | O=c1nc(-c2ccccn2)[nH]c2scc(-c3ccccc3Cl)c12 [drawing 1036] | 25 to 50
54 | O=c1nc(-c2ccccn2)[nH]c2sc(-c3ccccc3)cc12 [drawing 1037] | 25 to 50
55 | O=c1nc(-c2ccccn2)[nH]c2c1sc1ccccc12 [drawing 1038] | 76 to 100
56 | COCC(C)Nc1nc(-c2ccccn2)nc2sc(C)c(-c3ccccc3)c12 (stereo not shown) [drawing 1040] | 76 to 100

Row | SMILES | inhibition at 30 µM [%]
57 | CCc1cc(NNC(=O)c2ccc(C#N)cc2)nc(-c2ccccn2)n1 [drawing 1041] | 76 to 100
58 | CC(O)CNc1nc(-c2ccccn2)nc2scc(-c3ccccc3)c12 (stereo not shown) [drawing 1042] | 25 to 50
59 | Cc1sc2nc(-c3ccccn3)nc(NCCCO)c2c1-c1ccccc1 [drawing 1043] | 1 to 25
60 | Cc1cccc(CN(Cc2ccccn2)Cc2nccn2C)c1 [drawing 1045] | 25 to 50
61 | Oc1ccc(C2(c3cccc(Cl)c3)CCCC2)cc1 [drawing 1047] | 76 to 100
62 | COC(=O)c1ccc(C(=O)NCC2(c3ccccc3OC)CCCC2)nc1 [drawing 1048] | 1 to 25
63 | CCOc1cc(S(=O)(=O)N(Cc2ccccc2)Cc2ccccc2)c(OCC)cc1C [drawing 1049] | 1 to 25
64 | COc1ccc(CN(CC[S+]([O-])c2cc(Cl)ccc2Cl)C2CC2)cc1 (stereo not shown) [drawing 1050] | 25 to 50
65 | CCCOc1ccc2ccccc2c1CN(C)S(=O)(=O)N1CC(C)OC(C)C1 (stereo not shown) [drawing 1051] | 1 to 25
66 | O=S(=O)(Oc1cc(C(F)(F)F)cc(C(F)(F)F)c1)N1CCc2ccccc2C1 [drawing 1052] | 1 to 25
67 | COC(=O)C(C)CN(Cc1cc(Br)ccc1[N+](=O)[O-])C1CC1 (stereo not shown) [drawing 1054] | 1 to 25
68 | CSc1nc(C2CC2)cc(C(=O)NCCc2ccc(S(=O)(=O)NC(=O)c3cc(C4CC4)nc(SC)c3C#N)cc2)c1C#N [drawing 1055] | 76 to 100
69 | CC(C)C1=C(O)C2(CC2c2ccc(-c3ccccc3)cc2)C(C)CC1 (stereo not shown) [drawing 1056] | 1 to 25
70 | COc1ccc(COCC(=O)N2CCCc3c(O)nc(-c4ccccn4)nc32)cc1 [drawing 1057] | 1 to 25
71 | COc1ccc(CCC(=O)N2CCCc3c(O)nc(-c4ccccn4)nc32)cc1 [drawing 1058] | 25 to 50
72 | O=C(c1ccc(=O)[nH]n1)N1CCCc2c(O)nc(-c3ccccn3)nc21 [drawing 1059] | 1 to 25
73 | O=S(=O)(CCc1ccccc1)N1CCCc2c(O)nc(-c3ccccn3)nc21 [drawing 1060] | 25 to 50
74 | O=C(CC(c1ccccc1)c1ccccc1)N1CCCc2c(O)nc(-c3ccccn3)nc21 [drawing 1061] | 1 to 25
75 | O=C(c1ccccn1)N1CCCc2c(O)nc(-c3ccccn3)nc21 [drawing 1062] | 1 to 25
76 | Nc1nc(O)c2scc(C(=O)N3CCc4ccccc4CC3)c2n1 [drawing 1063] | 1 to 25
77 | Oc1nc(-c2ccccn2)nc2c(Br)csc12 [drawing 1064] | 76 to 100
78 | CC1CCN(C(=O)c2csc3c(O)nc(-c4ccccn4)nc23)CC1 [drawing 1065] | 1 to 25
79 | COCCCC1CCN(C(=O)c2csc3c(O)nc(-c4ccccn4)nc23)CC1 [drawing 1066] | 1 to 25
80 | O=C(c1csc2c(O)nc(-c3ccccn3)nc12)N1CCC(N2CCOCC2)CC1 [drawing 1067] | 1 to 25
81 | O=C(c1csc2c(O)nc(-c3ccccn3)nc12)N1CCN(c2ccccc2)CC1 [drawing 1068] | 76 to 100
82 | O=C(c1csc2c(O)nc(-c3ccccn3)nc12)N1CCN(c2ccncc2)CC1 [drawing 1069] | 25 to 50
